Test results: publication PMC6081875 (EJNMMI Research, 2018)

Key:
[1] = Whole-body effective half-life from sequential whole-body planar images (mono-exponential fit); format: in vivo, human; conditions: mono-exponential fit, 24, 48, 72 h p. i.
Description: (§1) Data for dosimetry were acquired during a routine 4-day in-patient stay following the radiopharmaceutical injection, in conjunction with standard clinical examinations. All patients received a 15-min one-bed abdominal SPECT scan and a 20-min whole-body planar scintigraphy at 24, 48, and 72 h post-injection (p. i.) on a dual-headed Symbia T2 SPECT/CT (Siemens Medical Solutions, Erlangen, Germany). Counts were detected for the photopeak window of 208 keV (width 15%) by the usage of a medium-energy low-penetration collimator. Two additional scatter windows were measured at 170 keV (width 15%) and 240 keV (width 10%). A low-dose AC-CT was acquired at the first image acquisition session for anatomical correlation and attenuation correction during quantitative SPECT reconstruction. For the determination of the absorbed dose to the bone marrow from the activity circulating in the blood, five venous blood samples were drawn from the site contralateral to injection at 30 and 80 min p. i. and 24, 48, and 72 h p. i..
For each patient, all acquired whole-body planar images were corrected for scatter and attenuation on a pixel basis via a dedicated MATLAB routine (Fig. 1); for the correction of scatter, the TEW method was applied, as for the quantitative SPECT images. For the attenuation correction, a linear projection of μ values along the ventral axis of the patient was created from the diagnostic CT image of the pre-therapeutic Ga-68 PET/CT scan, which covered nearly the whole patient body from the middle of the head to approximately the knees. Therefore, a conversion between the Hounsfield units (HUs) in the diagnostic CT and the μ values at 208 keV was established by acquiring a CT scan of a Gammex tissue phantom (Gammex 467; Gammex, Inc., Middleton, WI) with 16 tissue rods of known composition and thus known attenuation characteristics. The μ values of all rods were plotted against the measured HUs, and a bilinear fit model (range 1: HU = (− 688;0); range 2: HU = (0;1127)) was applied to the whole data set. This calibration curve allows for the assignment of μ values to a continuous range of HUs. The lower arms and legs as well as a part of the head were not included in the PET/CT data, as the arms are usually positioned above the head during the PET/CT scan and as the PET/CT scan is usually not acquired over the entire patient length. By contrast, the arms, legs, and head are fully included in the whole-body planar images, and an appropriate μ value has to be defined for each segment (Fig. 1). Thus, mean μ values derived from three patients with PET/CT acquisitions of the head, legs, and arms were assigned to the missing segments. Therefore, all segments—the part visible on the PET/CT and the missing parts of the head, arms, and legs—were delineated on the co-registered whole-body planar images (delineation and rigid body co-registration via PMOD Version 3.609). The resulting map of the regions of interest (ROI) was saved, with each ROI segment being characterised via a defined value. This ROI map was then loaded by a self-designed MATLAB routine, which assigned the defined μ value to each segment according to the ROI number. Afterwards, the resulting whole-body integral μ-map was blurred via a Gaussian filter with a width approximating an average resolution of the gamma camera (geometric resolution of full width at half maximum of 11 mm at 10 cm). Pixel-wise attenuation correction was finally performed in conjunction with geometric averaging of both planar views (conjugate view method).
Calibration of whole-body planar images was performed via the corresponding quantitative abdominal SPECT by using the fact that ideally the total activity ASPECT within the quantitative SPECT should be correlated to the number of counts per second (cps) xplanar in the planar abdominal counterpart multiplied by an appropriate calibration factor: […]

[2] = test system: bone marrow; assay: Bone marrow dosimetry, reference protocol (RP): sequential whole-body planar and quantitative SPECT images plus blood samples, organ-level S values; format: in vivo
Description: as §1
Quantitative SPECT images were reconstructed as described by Delker et al. via a rotation-based, penalised, one-step-late ordered subset expectation maximisation algorithm, which included corrections for scatter, attenuation, and distance-dependent geometrical collimator blur. Attenuation correction was performed for each SPECT scan via the AC-CT, which was acquired along with the SPECT scan 24 h post-injection. To apply the attenuation correction, especially to the SPECT scans 48 and 72 h p. i., the single AC-CT was co-registered onto an initial SPECT reconstruction without attenuation correction by using a rigid body co-registration algorithm with six degrees of freedom (PMOD Version 3.609, PMOD Technologies, Zurich, Switzerland). If only one AC-CT is acquired for sequential SPECT imaging, special care has to be taken to minimise misregistration between SPECT images and separately acquired CT scans, as such a misalignment can distort the proper attenuation correction and, thus, activity quantification. This is in principal also true for serial SPECT and CT imaging, as even within a single image acquisition session patient movements cannot be entirely avoided. Scatter correction employed the triple energy window (TEW) method. Correction for distance-dependent collimator blur made use of a Gaussian blur model. Corrections for partial volume effects and dead time were not applied. For conversion of the measured counts per second and per voxel to Becquerel per millilitre, an appropriate calibration factor was determined. Therefore, we used a large cylinder of approximately 20 cm diameter, which was filled with a known activity concentration and which has been imaged and reconstructed via the same protocol.
For each patient, all acquired whole-body planar images were corrected for scatter and attenuation on a pixel basis via a dedicated MATLAB routine (Fig. 1); for the correction of scatter, the TEW method was applied, as for the quantitative SPECT images. For the attenuation correction, a linear projection of μ values along the ventral axis of the patient was created from the diagnostic CT image of the pre-therapeutic Ga-68 PET/CT scan, which covered nearly the whole patient body from the middle of the head to approximately the knees. Therefore, a conversion between the Hounsfield units (HUs) in the diagnostic CT and the μ values at 208 keV was established by acquiring a CT scan of a Gammex tissue phantom (Gammex 467; Gammex, Inc., Middleton, WI) with 16 tissue rods of known composition and thus known attenuation characteristics. The μ values of all rods were plotted against the measured HUs, and a bilinear fit model (range 1: HU = (− 688;0); range 2: HU = (0;1127)) was applied to the whole data set. This calibration curve allows for the assignment of μ values to a continuous range of HUs. […]

[3] = median of n = 5 patients per therapy
[4] = median of n = 5 patients per therapy, approx. 7.4 GBq Lu-177-Octreotate (NET) or 3.7 GBq Lu-177-PSMA-617 (mCRPC)

O=C(O)CC[C@H](NC(=O)N[C@@H](CCCCNC(=O)[C@H](Cc1ccc2ccccc2c1)NC(=O)[C@H]1CC[C@H](CNC(=O)CN2CCN(CC(=O)O)CCN(CC(=O)O)CCN(CC(=O)O)CC2)CC1)C(=O)O)C(=O)O [Lu-177-PSMA-617, Lu-177-DKFZ-PSMA-617, metal not drawn]
T1/2, WB, planar-based whole-body effective half-life [1, 3]: 31 h
T1/2, WB, planar-based whole-body effective half-life ([1]; patient P6 (mCRPC)): 22 h
T1/2, WB, planar-based whole-body effective half-life ([1]; patient P7 (mCRPC)): 31 h
T1/2, WB, planar-based whole-body effective half-life ([1]; patient P8 (mCRPC)): 65 h
T1/2, WB, planar-based whole-body effective half-life ([1]; patient P9 (mCRPC)): 39 h
T1/2, WB, planar-based whole-body effective half-life ([1]; patient P10 (mCRPC)): 29 h
DBM ← total, total bone marrow absorbed dose, RP [2, 4]: 10.2 mGy/GBq
DBM ← total, total bone marrow absorbed dose, RP ([2]; patient P6 (mCRPC, 3718 MBq)): 10.2 mGy/GBq
DBM ← total, total bone marrow absorbed dose, RP ([2]; patient P7 (mCRPC, 3743 MBq)): 6.7 mGy/GBq
DBM ← total, total bone marrow absorbed dose, RP ([2]; patient P8 (mCRPC, 3745 MBq)): 16.8 mGy/GBq
DBM ← total, total bone marrow absorbed dose, RP ([2]; patient P9 (mCRPC, 3752 MBq)): 14.2 mGy/GBq
DBM ← total, total bone marrow absorbed dose, RP ([2]; patient P10 (mCRPC, 3700 MBq)): 8.3 mGy/GBq

C[C@@H](O)[C@H](NC(=O)[C@@H]1CSSC[C@H](NC(=O)[C@@H](Cc2ccccc2)NC(=O)CN2CCN(CC(=O)O)CCN(CC(=O)O)CCN(CC(=O)O)CC2)C(=O)N[C@@H](Cc2ccc(O)cc2)C(=O)N[C@H](Cc2c[nH]c3ccccc23)C(=O)N[C@@H](CCCCN)C(=O)N[C@@H]([C@@H](C)O)C(=O)N1)C(=O)O [Lu-177-Octreotate, Lu-177-[DOTA^0,Tyr^3]-Octreotate, metal not drawn]
T1/2, WB, planar-based whole-body effective half-life [1, 3]: 43 h
T1/2, WB, planar-based whole-body effective half-life ([1]; patient P1 (NET)): 40 h
T1/2, WB, planar-based whole-body effective half-life ([1]; patient P2 (NET)): 43 h
T1/2, WB, planar-based whole-body effective half-life ([1]; patient P3 (NET)): 43 h
T1/2, WB, planar-based whole-body effective half-life ([1]; patient P4 (NET)): 52 h
T1/2, WB, planar-based whole-body effective half-life ([1]; patient P5 (NET)): 62 h
DBM ← total, total bone marrow absorbed dose, RP [2, 4]: 12.1 mGy/GBq
DBM ← total, total bone marrow absorbed dose, RP ([2]; patient P1 (NET, 7654 MBq)): 12.1 mGy/GBq
DBM ← total, total bone marrow absorbed dose, RP ([2]; patient P2 (NET, 7425 MBq)): 9.6 mGy/GBq
DBM ← total, total bone marrow absorbed dose, RP ([2]; patient P3 (NET, 7420 MBq)): 15.6 mGy/GBq
DBM ← total, total bone marrow absorbed dose, RP ([2]; patient P4 (NET, 7409 MBq)): 11.8 mGy/GBq
DBM ← total, total bone marrow absorbed dose, RP ([2]; patient P5 (NET, 7410 MBq)): 12.7 mGy/GBq
